Where two headings read alike, the source gives them in different places. Numbered stars: 1 amine (or outer) side, 2 acyl side, 3 side chain; on linkers, the order of the positions; unused ones are H or OH. Bridge positions count the residues as written; N and C are the ends. Square brackets hold non-standard residues; d marks the D form. Peptide text beside a SMILES is read from it. * marks the point of attachment. X7 = O=C(O)CN1CCN(CC(=O)O)CCN(CC(=O)NC2CCN(CC(=O)*)CC2)CCN(CC(=O)O)CC1; DOTA = O=C(O)CN1CCN(CC(=O)O)CCN(CC(=O)*)CCN(CC(=O)O)CC1; Trp(6-Cl) = N[C@@H](Cc1c[nH]c2cc(Cl)ccc12)C(=O)O; Phe(3-Cl) = N[C@@H](Cc1cccc(Cl)c1)C(=O)O; Phe(4-Cl) = N[C@@H](Cc1ccc(Cl)cc1)C(=O)O; Arg(Me) = CNC(=N)NCCC[C@H](N)C(=O)O; Ethylenediamine = C(CN[*:2])N[*:1]; 3Pal = N[C@@H](Cc1cccnc1)C(=O)O; X1 = O=C(CC1CCN([*:1])CC1)[*:2]; Lys(Me) = CNCCCC[C@H](N)C(=O)O; Tle = CC(C)(C)[C@H](N)C(=O)O; Isovaleryl = CC(C)CC(=O)*; Aib = CC(C)(N)C(=O)O
Tests used:
[1] = molecular target: T1, Fc-fusion protein of human PSMA (hPSMA-Fc) (Homo sapiens, UniProt Q04609); test: Surface plasmon resonance assay (Biacore T200, single cycle kinetic); type: binding; details: read-out: pKD CAT (converted)
T1 construct: purchased Acro Biosystems PSA-H5264
T1 sequence (Q04609 44-750 limits assumed): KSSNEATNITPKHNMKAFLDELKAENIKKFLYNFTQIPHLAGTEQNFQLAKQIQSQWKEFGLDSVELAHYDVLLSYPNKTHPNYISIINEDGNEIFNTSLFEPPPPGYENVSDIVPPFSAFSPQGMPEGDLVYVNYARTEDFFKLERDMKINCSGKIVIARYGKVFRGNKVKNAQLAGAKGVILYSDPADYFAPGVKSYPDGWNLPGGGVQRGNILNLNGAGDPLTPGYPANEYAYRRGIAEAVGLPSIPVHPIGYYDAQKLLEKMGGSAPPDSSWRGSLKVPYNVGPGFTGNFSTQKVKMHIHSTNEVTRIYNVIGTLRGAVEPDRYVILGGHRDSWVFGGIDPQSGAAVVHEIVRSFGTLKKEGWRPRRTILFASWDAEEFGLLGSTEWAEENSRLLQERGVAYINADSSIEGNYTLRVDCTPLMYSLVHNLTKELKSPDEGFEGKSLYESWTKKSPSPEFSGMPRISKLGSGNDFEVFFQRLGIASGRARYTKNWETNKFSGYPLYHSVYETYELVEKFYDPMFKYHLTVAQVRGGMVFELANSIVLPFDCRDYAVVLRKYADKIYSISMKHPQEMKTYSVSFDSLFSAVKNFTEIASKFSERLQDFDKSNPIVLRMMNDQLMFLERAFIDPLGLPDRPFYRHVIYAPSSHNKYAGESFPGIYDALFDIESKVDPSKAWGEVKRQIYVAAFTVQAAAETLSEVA
Summary of the method: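 hPSMA-Fc was captured (~1000 RU) on an Fc-binding-peptide CM5 chip, and compounds were run in single cycle kinetic mode at 25° C in HBST with 0.1% DMSO. Double-blank-corrected sensorgrams were fitted to a 1:1 Langmuir model to give KD, reported as pKD.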

[2] = molecular target: T2, PSMA-expressing C4-2 cells (Homo sapiens, UniProt Q04609); test: FACS binding assay (competition with 50 nM PSM-0183); details: read-out: pIC50 [C4-2] CAT (converted)
T2 construct: PSMA-expressing C4-2 cells (ATCC, Cat. No. CRL-3314) were cultured in RPMI-1640; host or cells: C4-2 cells
T2 sequence (Q04609 whole entry): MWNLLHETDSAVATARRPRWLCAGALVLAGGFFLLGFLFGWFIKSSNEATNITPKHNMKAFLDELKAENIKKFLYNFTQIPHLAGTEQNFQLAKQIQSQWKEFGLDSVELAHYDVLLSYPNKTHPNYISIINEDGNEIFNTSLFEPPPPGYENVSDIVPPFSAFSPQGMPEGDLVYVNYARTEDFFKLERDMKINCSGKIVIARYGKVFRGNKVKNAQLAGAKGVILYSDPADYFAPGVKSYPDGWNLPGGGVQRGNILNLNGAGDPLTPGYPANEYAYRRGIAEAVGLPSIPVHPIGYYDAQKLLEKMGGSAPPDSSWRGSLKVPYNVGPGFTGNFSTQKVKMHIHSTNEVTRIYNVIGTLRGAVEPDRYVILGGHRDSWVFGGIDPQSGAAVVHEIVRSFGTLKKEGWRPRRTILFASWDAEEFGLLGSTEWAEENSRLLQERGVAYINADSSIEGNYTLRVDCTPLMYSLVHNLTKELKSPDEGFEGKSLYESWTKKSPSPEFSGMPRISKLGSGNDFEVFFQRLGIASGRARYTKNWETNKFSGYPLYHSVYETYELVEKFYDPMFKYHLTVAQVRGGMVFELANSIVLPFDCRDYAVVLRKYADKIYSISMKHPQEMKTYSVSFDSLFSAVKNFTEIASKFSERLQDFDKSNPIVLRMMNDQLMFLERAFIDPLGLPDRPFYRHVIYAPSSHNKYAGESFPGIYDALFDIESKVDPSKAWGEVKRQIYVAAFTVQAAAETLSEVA
Summary of the method: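 C4-2 cells were incubated 1 h at 4 °C with 50 nM AF488-labelled peptide PSM-0183 plus increasing test compound concentrations, then washed twice in ice-cold buffer. Median fluorescence in the AF488 channel was read by flow cytometry. IC50/pIC50 was derived by 4PL fitting of MFI versus concentration.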

[3] = PSMA SPR assay, hPSMA-Fc, 25° C., pKD category
[4] = FACS binding, PSMA-expressing C4-2 cells, pIC50 category
[5] = FACS binding, C4-2 cells, category
[6] = pKD category for PSMA SPR activity assay, hPSMA-Fc, 25° C.
[7] = pIC50 category of FACS binding, C4-2 cells

Row | Kd [1, 3] | IC50 [2, 4] | Kd [1, 6] | IC50 [2, 7] | SMILES | further results
1 | > 501 nM | > 3160 nM | – | – | CC(=O)N[C@H](C(=O)NC(C)(C)C(=O)N[C@@H](Cc1ccccc1)C(=O)N[C@@H]1CSSC[C@@H](C(=O)N[C@H](C(=O)N[C@H](C(N)=O)[C@@H](C)O)C(C)(C)C)NC(=O)[C@H](CC(N)=O)NC(=O)C(C)(C)NC(=O)[C@H](CCCNC(=N)N)NC(=O)[C@H](CCCCN)NC1=O)[C@@H](C)O [PSM-0348, Ac-Thr-Aib-Phe-[cys-Lys-Arg-Aib-Asn-Cys]-Tle-Thr-NH2] (Ac-T[Aib]F[dC]KR[Aib]NC[Tle]T-NH2; disulfide 4-9) | –
2 | – | – | – | – | CC(=O)N[C@H](C(=O)NC(C)(C)C(=O)N[C@@H](Cc1c[nH]c2ccccc12)C(=O)N[C@H]1CSSC[C@@H](C(=O)N[C@H](C(=O)N[C@H](C(=O)N[C@@H](CC(=O)O)C(N)=O)[C@@H](C)O)C(C)(C)C)NC(=O)[C@H](CC(N)=O)NC(=O)C(C)(C)NC(=O)[C@H](CCCNC(=N)N)NC(=O)[C@H](CCCCN)NC1=O)[C@@H](C)O [PSM-0587, Ac-Thr-Aib-Trp-[Cys-Lys-Arg-Aib-Asn-Cys]-Tle-Thr-Asp-NH2] (Ac-T[Aib]WCKR[Aib]NC[Tle]TD-NH2; disulfide 4-9) | Kd ([1]; PSMA SPR assay, category): < 12.6 nM; IC50 [2, 5]: < 200 nM
3 | < 12.6 nM | < 200 nM | – | – | CNC(=N)NCCC[C@@H]1NC(=O)[C@H](CCCCN)NC(=O)[C@@H](NC(=O)[C@H](Cc2ccc(Cl)cc2)NC(=O)C(C)(C)NC(=O)[C@@H](NC(=O)CC2CCN(C(=O)CN3CCN(CC(=O)O)CCN(CC(=O)O)CCN(CC(=O)O)CC3)CC2)[C@@H](C)O)CSSC[C@@H](C(=O)N[C@H](C(=O)N[C@H](C(N)=O)[C@@H](C)O)C(C)(C)C)NC(=O)[C@H](CC(N)=O)NC(=O)C(C)(C)NC1=O [PSM-0351, DOTA-Cmp-Thr-Aib-Pcf-[Cys-Lys-Arg(Me)-Aib-Asn-Cys]-Tle-Thr-NH2] ({DOTA}-[X1]T[Aib][Phe(4-Cl)]CK[Arg(Me)][Aib]NC[Tle]T-NH2; disulfide 5-10) | –
4 | < 12.6 nM | < 200 nM | – | – | CC(C)CC(=O)NC(C)(C)C(=O)N[C@@H](Cc1ccc(Cl)cc1)C(=O)N[C@H]1CSSC[C@@H](C(=O)N[C@H](C(=O)N[C@H](C(N)=O)[C@@H](C)O)C(C)(C)C)NC(=O)[C@H](CC(N)=O)NC(=O)[C@H](CCCCNC(=O)CN2CCC(NC(=O)CN3CCN(CC(=O)O)CCN(CC(=O)O)CCN(CC(=O)O)CC3)CC2)NC(=O)[C@H](CCCNC(=N)N)NC(=O)[C@H](CCCCN)NC1=O [PSM-0353, Iva-Aib-Pcf-[Cys-Lys-Arg-Lys(DOTA-APAc)-Asn-Cys]-Tle-Thr-NH2] (Isovaleryl-[Aib][Phe(4-Cl)]CKRK(X7)NC[Tle]T-NH2; disulfide 3-8) | –
5 | 126 to 501 nM | 200 to 1260 nM | – | – | CNCCCC[C@@H]1NC(=O)[C@@H](NC(=O)[C@H](Cc2cccnc2)NC(=O)C(C)(C)NC(=O)[C@@H](NC(=O)CC2CCN(C(=O)CN3CCN(CC(=O)O)CCN(CC(=O)O)CCN(CC(=O)O)CC3)CC2)[C@@H](C)O)CSSC[C@@H](C(=O)N[C@H](C(=O)N[C@H](C(N)=O)[C@@H](C)O)C(C)(C)C)NC(=O)[C@H](CC(N)=O)NC(=O)C(C)(C)NC(=O)[C@H](CCCNC(=N)NC)NC1=O [PSM-0296, DOTA-Cmp-Thr-Aib-Mpa-[Cys-Lys(Me)-Arg(Me)-Aib-Asn-Cys]-Tle-Thr-NH2] ({DOTA}-[X1]T[Aib][3Pal]C[Lys(Me)][Arg(Me)][Aib]NC[Tle]T-NH2; disulfide 5-10) | –
6 | – | – | – | – | C[C@@H](O)[C@H](NC(=O)[C@@H](NC(=O)[C@@H]1CSSC[C@H](NC(=O)[C@H](Cc2cccc(Cl)c2)NC(=O)C(C)(C)NC(=O)[C@@H](NC(=O)CC2CCN(C(=O)CN3CCN(CC(=O)O)CCN(CC(=O)O)CCN(CC(=O)O)CC3)CC2)[C@@H](C)O)C(=O)N[C@@H](CCCCN)C(=O)N[C@@H](CCCNC(=N)N)C(=O)NC(C)(C)C(=O)N[C@@H](CC(N)=O)C(=O)N1)C(C)(C)C)C(N)=O [PSM-0583, DOTA-Cmp-Thr-Aib-Mcf-[Cys-Lys-Arg-Aib-Asn-Cys]-Tle-Thr-NH2] ({DOTA}-[X1]T[Aib][Phe(3-Cl)]CKR[Aib]NC[Tle]T-NH2; disulfide 5-10) | Kd ([1]; PSMA SPR assay, category): < 12.6 nM; IC50 [2, 5]: < 200 nM
7 | – | – | < 12.6 nM | < 200 nM | CNCCCC[C@@H]1NC(=O)[C@@H](NC(=O)[C@H](Cc2c[nH]c3cc(Cl)ccc23)NC(=O)C(C)(C)NC(=O)[C@@H](NC(=O)CC2CCN(C(=O)CN3CCN(CC(=O)O)CCN(CC(=O)O)CCN(CC(=O)O)CC3)CC2)[C@@H](C)O)CSSC[C@@H](C(=O)N[C@H](C(N)=O)C(C)(C)C)NC(=O)[C@H](CC(N)=O)NC(=O)C(C)(C)NC(=O)[C@H](CCCNC(=N)NC)NC1=O [PSM-0390, DOTA-Cmp-Tle-Aib-6Clw-[Cys-Lys(Me)-Arg(Me)-Aib-Asn-Cys]-Tle-NH2] ({DOTA}-[X1]T[Aib][Trp(6-Cl)]C[Lys(Me)][Arg(Me)][Aib]NC[Tle]-NH2; disulfide 5-10) | –
8 | – | – | < 12.6 nM | < 200 nM | CNCCCC[C@@H]1NC(=O)[C@@H](NC(=O)[C@H](Cc2ccc(Cl)cc2)NC(=O)C(C)(C)NC(C)=O)CSSC[C@@H](C(=O)N[C@H](C(=O)NCCNC(=O)CN2CCN(CC(=O)O)CCN(CC(=O)O)CCN(CC(=O)O)CC2)C(C)(C)C)NC(=O)[C@H](CC(N)=O)NC(=O)C(C)(C)NC(=O)[C@H](CCCNC(=N)N)NC1=O [PSM-0472, Ac-Aib-Pcf-[Cys-Lys(Me)-Arg-Aib-Asn-Cys]-Tle-en-DOTA] (Ac-[Aib][Phe(4-Cl)]C[Lys(Me)]R[Aib]NC[Tle]-{Ethylenediamine-DOTA}; disulfide 3-8) | –
9 | – | – | < 12.6 nM | < 200 nM | CNCCCC[C@@H]1NC(=O)[C@@H](NC(=O)[C@H](Cc2ccc(Cl)cc2)NC(=O)C(C)(C)NC(=O)[C@@H](NC(=O)CC2CCN(C(=O)CN3CCN(CC(=O)O)CCN(CC(=O)O)CCN(CC(=O)O)CC3)CC2)[C@@H](C)O)CSSC[C@@H](C(=O)N[C@H](C(N)=O)C(C)(C)C)NC(=O)[C@H](CC(N)=O)NC(=O)C(C)(C)NC(=O)[C@H](CCCNC(=N)NC)NC1=O [PSM-0380, DOTA-Cmp-Thr-Aib-Pcf-[Cys-Lys(Me)-Arg(Me)-Aib-Asn-Cys]-Tle-NH2] ({DOTA}-[X1]T[Aib][Phe(4-Cl)]C[Lys(Me)][Arg(Me)][Aib]NC[Tle]-NH2; disulfide 5-10) | –
10 | – | – | – | – | CCCC[C@H](NC(=O)[C@@H]1CSSC[C@H](NC(=O)[C@H](Cc2ccccc2)NC(=O)[C@H](C)NC(=O)[C@@H](NC(C)=O)[C@@H](C)O)C(=O)N[C@@H](CCCCN)C(=O)N[C@@H](CCCNC(=N)N)C(=O)N[C@@H](C)C(=O)N[C@@H](CC(N)=O)C(=O)N1)C(=O)N[C@@H](C(=O)N[C@H](CC(=O)O)C(N)=O)[C@H](C)O [PSM-0182, Ac-Thr-Ala-Phe-[Cys-Lys-Arg-Ala-Asn-Cys]-Nle-thr-Asp-NH2] | Kd ([1]; SPR, hPSMA-Fc, single cycle kinetic, 25° C., category): > 501 nM; IC50 ([2]; FACS binding, C4-2 cells, competition with 50 nM PSM-0183, category): 1260 to 3160 nM
